Source: patent US7683061B2, “Triazine dimers for the treatment of autoimmune diseases” (ProMetic BioSciences Inc., priority 2003, dated 2010)

Experiments:
MRL/lpr mice = assay: SLE-like syndrome in MRL/lpr mice; type: in vivo; details: control group 10%
From the text: FIG. 5 is an example of the effect of compounds on survival of MRL/lpr mice. These mice also spontaneously develop SLE-like syndrome. MRL/lpr have a homozygous fas mutation, which accelerates autoimmunity. […] Furthermore, compounds 1 and 20 increase the survival (40%) compared to the control group (10%).

RAW 264.7 cells = assay: Phagocytosis of FITC-immune complexes by RAW 264.7 cells; type: cell-based
Description: This assay was performed to determine the ability of protein A mimic compounds to stimulate or inhibit uptake of FITC-Immune Complex (IC). FITC-IC was prepared by mixing human serum albumin (HSA)-fluorescein isothiocyanate (FITC) with mouse IgG anti-HSA at a 1:4 ratio (four molecules of antibody for one molecule of antigen) on a rotary shaker for 1 h at room temperature. Soluble IC was then incubated with or without compounds or protein A for 10 min. This mixture was added to RAW 264.7 cells and incubated for 2 h at 37° C. for IC phagocytosis. After incubation, cells were washed twice in cold PBS (5 min, 1200 rpm) and fixed with 500 μL PBS containing 2% formaldehyde. FITC signal taken up by RAW 264.7, which is indicative of IC phagocytosis, was determined by flow cytometry analysis in a Becton Coulter counter with an argon laser and signal was measured through a 530/30 nm filter.

NZBxNZW mice = assay: SLE-glomerulonephritis in NZBxNZW mice; type: in vivo
From the text: New Zealand mice of the F1 hybrid cross NZBxNZW develop most of the autoimmune abnormalities seen in human SLE and die from SLE-like immune complex (IC)-mediated glomerulonephritis. The mice develop high titers of anti-DNA (double-strand and single-strand) and nuclear extract (NE) antibodies, as well as SLE-related clinical manifestations including leukopenia, thrombocytopenia, proteinuria and glomerulonephritis. These mice develop anti-DNA antibodies after the age of 3 months, with a peak of anti-DNA antibody response occurring at 7 months. Subsequently, the serum concentration of anti-DNA antibodies declines, presumably as a consequence of progressive uremia. The first serological manifestations of the disease occurs at about 150 days (5 months). Their survival is evaluated at approximately 250 days.
FIG. 2 illustrates the effect of compound 1 on the mortality of the NZBxNZW mice. Intravenous administration of compound or vehicle was undertaken once a week from week 18 to week 37. Treatment ceased for 11 weeks and was restarted at week 48 for the control and compound 1 groups. […] It also delays the appearance of symptoms and mortality up to week 45. FIG. 3 illustrates the proteinuria at week 48 to 51.

[1] = test system: female Lewis rats, collagen-induced arthritis; assay: Collagen-induced arthritis (CIA); type: in vivo; details: intravenous; from day 16 to day 21
Description: Collagen-induced arthritis (CIA) was induced in female Lewis rats by intradermal administration of heterologous (bovine) type II collagen (250 μg) solubilized in 0.1 M acetic acid and emulsified in Complete Freund's Adjuvant (CFA). Rats were treated with the vehicle or methotrexate or compound 1 by intravenous injections at day 8, 9, 12, 14 and 16. Synovitis typically develops 12-15 days postimmunization in 80-90% of the animals. Once arthritis appears, each paw was examined two to three times a week. Both the incidence and severity of the arthritis was evaluated. Incidence is defined as the number of rats with clinical evidence of joint inflammation during the study period while severity was quantified by scoring daily each paw integer on a scale of 0 to 4 (0=normal, 4=maximum; Table 7) based on increasing levels of swelling, periarticular erythema and stiffness. The sum of the scores for all four paws was calculated as the arthritic index with a maximum possible score of 16 per rat. Since CIA primarily affects hind limbs, scores of 6-8 represent severe arthritis.

[2] = molecular target: TNFα / p55 TNFα receptor (CD120a) (Homo sapiens, UniProt P01375); assay: Binding ELISA: sTNF-R1 binding to plastic coated TNF-α
Chain of TNFα / p55 TNFα receptor (CD120a) (P01375 77-233 limits assumed): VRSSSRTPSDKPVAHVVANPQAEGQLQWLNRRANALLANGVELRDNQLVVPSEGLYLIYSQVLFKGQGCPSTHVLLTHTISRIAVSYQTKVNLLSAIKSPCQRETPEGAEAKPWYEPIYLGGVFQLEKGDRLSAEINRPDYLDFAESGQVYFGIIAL
Description: Compounds were tested for their ability to bind to TNFα or inhibit the interaction of TNFα with its respective receptors; p55 and p75 TNFα receptor. Three binding ELISA assays were undertaken as described by Mancini et al. Biochemical Pharmacology 58, 851-859 (1999). TNFα or receptor (1 μg/mL) was coated on a 96-well plate Maxisorp, overnight at 4° C. After incubation, unbound TNFα or p55 TNFα receptor or p75 TNFα receptor was removed and the plate washed three times with PBS. The plate was then incubated with 100 μL/well of a 2% BSA solution for 1 h at 37° C. to block non specific protein binding. After incubation, the plate was washed three times with PBS. Biotinylated recombinant human TNFα p55 or p75 receptor or biotinylated recombinant human TNFα was added to the wells in the presence or absence of compounds. The plate was incubated for 1 h at 37° C. After incubation, the plate was washed three times with PBS to remove unbound labeled p55 or p75 receptor or recombinant human TNFα. 100 μL of avidin-HRP (diluted 1/2000 in PBS-0.1% BSA) was added to each well and incubated 1 h at 37° C. Bound p55 or p75 receptor or recombinant human TNFα was detected by the addition of 200 μL of 3,3′,5,5′-tetramethylbenzidine (TMB) per well for 15 min. The plate was then read at 655 nm on a EL 800 universal Microplate reader (Bio-Tek, Mississauga, Canada). Data was analyzed in Microsoft Excel and recorded as the percentage of inhibition of p55 or p75 binding to TNFα or TNFα binding to RI (p55) or RII (p75).

[3] = weekly intravenous, week 48 to week 52

Oc1ccc(CCNc2nc(NCCNc3nc(NCCc4ccc(O)cc4)nc(Nc4ccccc4)n3)nc(Nc3ccccc3)n2)cc1 [Compound 1]
survival of MRL/lpr mice (MRL/lpr mice): 40% | inhibition of phagocytosis of IC (RAW 264.7 cells; 10 and 20 μM): approximately 20% | phagocytosis of IC (RAW 264.7 cells; concentrations of 1, 2 and 4 μM): increase | delay of appearance of symptoms and mortality (NZBxNZW mice; intravenous once a week from week 18 to week 37): ≤ 45 week | mortality of NZBxNZW mice (NZBxNZW mice; intravenous once a week from week 18 to week 37, at week 37): reduces the mortality | extended survival (NZBxNZW mice; second SLE study, 65 weeks for control): up to 89 weeks | proteinuria: amount of protein greater than 5 g/liter (NZBxNZW mice; week 48 to 51, after 11 weeks without treatment): greater than the control | protein concentration (5 g/liter) in urine compared to the vehicle (NZBxNZW mice; [3]): decrease | trace amount of protein in urine (improvement in kidney filtration) (NZBxNZW mice; [3]): increase | reduction of the arthritic index [1]: 20% | inhibition at 100 µM ([2]; 10^−4 M): 2.7% | inhibition at 10 µM ([2]; 10^−5 M): 0%
